# According to US11352624B2, “Reducing nonsense-mediated MRNA decay” (Cold Spring Harbor Laboratory, priority 2013, dated 2022):
# Legend:
# [1] = system: mammalian cells carrying PTCs related to Usher syndrome, Rett syndrome, cystic fibrosis, and mucopolysaccharidosis I-Hurler (MPS I-H); settings: cited from earlier work
# [2] = system: PTC-containing CFTR transcript (W1282X); assay: Radioactive RT-PCR of cells expressing CFTR minigene carrying W1282X, transfected with ASOs; format: cell-based, human; settings: for relative potency among ASOs of each CFTR exon-exon junction (screening): boundaries 24/25, 25/26, 26/27, 19 ASOs each
# Procedure: ASO microwalks are performed as previously described (7), altogether targeting a region that spans 33 nt from −6 to −38 of the 3′ end of exons that are EJC-bound (FIG. 2). Briefly, cell lines expressing minigenes carrying mutations in the last EJC-bound exon or their wild-type versions and GFP (by transfection using lipofectamine or induction with tetracycline) are co-transfected with each of the 15-mer ASOs, independently. In total, 19 ASOs that are consecutively shifted by 1 nt are tested for each EJC-bound exon-exon junction downstream of the mutations (FIG. 2). This methodology was followed in designing the sequences for the ASOs to target PTC-containing (e.g., disease-causing nonsense mutation) HBB alleles (See SEQ ID NOs 1-19), MECP2 alleles (See SEQ ID NOs 20-38), CFTR alleles (See SEQ ID NOs 39-114), DMD alleles (See SEQ ID NOs 115-190), and IDUA alleles (See SEQ ID Nos 191-268). Different concentrations of ASOs are tested to obtain a dose-response curve. In the case of genes containing more than one exon-exon junction downstream of a PTC, minigene intermediates are constructed to screen for NMD-inhibiting ASOs one junction at a time and in combination with the best targeting ASO that resulted from the screening of the upstream junction. Abrogation of NMD is assessed by RT-PCR, and the percentage of mutant transcript is calculated as described above. Because some of the ASOs might interfere with splicing-factor binding sites, it is important to determine whether the splicing of the targeted exons is adversely affected. Only the ASOs that abrogate NMD without negative effects on splicing are pursued.
# Moreover, minigenes consisting of CFTR exons 22-25, 22-26 and 22-27 carrying the W1282X mutation in exon 23 as well as its restive wild-type version were generated. As described above, 19 15-mer ASOs were obtained that target a region spanning nucleotides −38 to −6 of the exons 24/25 boundary and transfected to CFTR minigene expressing cells. Once this screening identified the best NMD inhibiting ASO, it is then transfected in combination with each the 19 15-mer ASOs that target a region spanning nucleotides −38 to −6 of the exons 25/26 boundary. The resulting best combination of ASOs (from each exon-exon boundary) was then transfected in combination with each of the 19 15-mer ASOs that target a region spanning nucleotides −38 to −6 of the exons 26/27 boundary. The levels of spliced CFTR mRNA were then measured after induced expression using radioactive RT-PCR.
# [3] = system: PTC-containing HBB transcript (T39); assay: Radioactive RT-PCR of HeLa cells co-transfected with HBB reporters and ASOs; format: cell-based, human; settings: for mRNA levels of PTC-containing HBB transcript (T39): HeLa cells, ASO 50 nM co-transfected with HBB Q39X gene, compared with control-ASO, percentages normalized to WT
# From the text: (§1) In some examples, it is desirable to start with mutations located in the last presumptive EJC-bound exon, as targeting only one junction at a time will simplify the interpretation of results. Once the effectiveness of preventing EJC deposition by ASOs is confirmed, two or more junctions are targeted. In some examples, three mutations for each gene are selected, and only mutations that lead to a transcript level <50% of the wild-type transcript will be targeted by the ASO microwalk (discussed below). […] Briefly, minigenes carrying the selected mutations and their wild-type versions are co-transfected with a GFP-expressing vector into HeLa cells. Forty-eight hours later, RNA is extracted and radioactive RT-PCR is performed. Products corresponding to the wild-type and mutant minigenes are normalized to GFP expression, and the percentage of the mutant over the wild-type transcript is calculated. In the case of integrated minigenes into U2OS cells, wild-type and mutant minigene products are normalized to endogenous housekeeping genes, e.g. GAPDH.
# ASO microwalks are performed as previously described (7), altogether targeting a region that spans 33 nt from −6 to −38 of the 3′ end of exons that are EJC-bound (FIG. 2). Briefly, cell lines expressing minigenes carrying mutations in the last EJC-bound exon or their wild-type versions and GFP (by transfection using lipofectamine or induction with tetracycline) are co-transfected with each of the 15-mer ASOs, independently. […] Abrogation of NMD is assessed by RT-PCR, and the percentage of mutant transcript is calculated as described above. […]
# A set of 19 overlapping 2′-O-methoxyethyl phosphorothioate (MOE-P=S) ASO 15mers targeting the canonical EJC region in exon 2 of HBB were synthesized. […] The levels of spliced HBB mRNA were then measured after transient or induced expression using radioactive RT-PCR. […] Truncated protein levels resulting from the ASO treatment were assessed by western blot analysis using anti-GFP antibody.
# MECP2 S65X transcript = assay: MECP2 S65X minigene reporter, mRNA level after ASO transfection; format: cell-based, human; settings: microwalk of 19 ASOs
# From the text: as §1
# ASO microwalks are performed as previously described (7), altogether targeting a region that spans 33 nt from −6 to −38 of the 3′ end of exons that are EJC-bound (FIG. 2). […] Abrogation of NMD is assessed by RT-PCR, and the percentage of mutant transcript is calculated as described above. […]
Molecule,restoration of functional protein [1],relative potency among ASOs of each CFTR exon-exon junction (screening) [2],also measured
NC[C@H]1O[C@@H](OC2C(O)[C@H](N)CC(N)[C@H]2O[C@H]2OC(CO)[C@@H](O)C(O)C2N)C(O)C1O (some centres unmarked) [NB30],restore a significant amount of functional protein,–,–
NCC[C@H](O)C(=O)N[C@@H]1CC(N)[C@@H](O[C@H]2OC(CO)[C@@H](O)[C@H](O)C2N)[C@H](O[C@@H]2O[C@H](CN)[C@H](O)C2O)C1O (some centres unmarked) [NB54],restore a significant amount of functional protein,–,–
C[C@@H](O)C1O[C@H](O[C@@H]2C(N)C[C@@H](NC(=O)[C@@H](O)CCN)[C@@H](O)C2O[C@@H]2O[C@H](CN)[C@H](O)C2O)[C@@H](N)C(O)[C@@H]1O (some centres unmarked) [NB84],restore a significant amount of functional protein,–,–
"ACTGGGTTCATCAAG (listed as DNA, chemistry not given here) [SEQ ID NO: 83, ASO targeting CFTR exon 25]",–,most potent ASOs targeting each exon-exon junction,–
"CATATTTCTTGATCA (listed as DNA, chemistry not given here) [SEQ ID NO: 65, ASO targeting CFTR exon 24]",–,most potent ASOs targeting each exon-exon junction,–
"CTCAGGATCCACGTG (2'-MOE phosphorothioate, further chemistry not given here) [SEQ ID NO: 15, 2′-O-methoxyethyl phosphorothioate (MOE-P=S) 15mer]",–,–,"mRNA levels of PTC-containing HBB transcript (T39) [3]: increase in mRNA levels; relative potency among ASOs targeting HBB exon 2 ([3]; microwalk of 19 ASOs, -38 to -6 from the exon 2/exon 3 junction): most potent ASO targeting HBB exon 2"
"GCATTCCAGCATTGC (listed as DNA, chemistry not given here) [SEQ ID NO: 107, ASO targeting CFTR exon 26]",–,most potent ASOs targeting each exon-exon junction,"mRNA level of CFTR W1282X transcript, ASOs tested independently (relative potency) ([2]; CFTR 22-17 minigene, one ASO per exon-exon junction downstream of W1282X): most potent ASO"
"TACTTCCCAGCAGAG (listed as DNA, chemistry not given here) [SEQ ID NO: 25]",–,–,relative potency among ASOs targeting MECP2 exon 3 (MECP2 S65X transcript): most potent ASO targeting MECP2 exon 3
"TCTCAGGATCCACGT (all 2'-MOE, all phosphorothioate, methylation of C not given here) [SEQ ID NO: 16, ASO targeting HBB exon 2; 2′-O-methoxyethyl phosphorothioate (MOE-P=S) 15mer]",–,–,mRNA levels of PTC-containing HBB transcript (T39) [3]: increase in mRNA levels
